Each structure is given as a SMILES string.

In this assay the target is CBL-B protein (Homo sapiens, UniProt Q13191). As to the kind of experiment: CBL-B binding experiment (Streptavidin-Tb cryptate / Ligand L1 displacement). Particulars: 8 nM CBL-B protein, 25° C., 60 minutes; Ki=Relative IC50/2. How it is done: The reaction system mainly includes 1× buffer, 20 mM HEPES pH 7.5, 150 mM NaCl, 0.01% Triton X-100, 0.5 mM TCEP, and 0.1% ug/ml BSA. The compound is continuously diluted with DMSO for 10 concentration points, and 150 nL is transferred to the experimental plate. The experimental reaction begins after adding 8 nM of CBL-B protein and the reaction is carried out at 25° C. for 60 minutes. […] After an additional 60 minutes of incubation at room temperature, the experimental plate is read using an EnVision plate. The luminescence signal values were converted to percentage inhibition rates. Inhibition %=(Sample value−Maximum value)/(Minimum value−Maximum value)×100. The minimum value refers to the measured value in the wells without CBL-B protein but with DMSO and Ligand, while the maximum value refers to the measured value in the wells with DMSO, CBL-B protein, and Ligand. The IC50 values are calculated by XLFit (version 5.3.1.3) in Excel. Equation: Y=Bottom+(Top−Bottom)/(1+(IC50/X)^HillSlope); Ki=Relative IC50/2.
Chain of CBL-B protein (Q13191 whole entry): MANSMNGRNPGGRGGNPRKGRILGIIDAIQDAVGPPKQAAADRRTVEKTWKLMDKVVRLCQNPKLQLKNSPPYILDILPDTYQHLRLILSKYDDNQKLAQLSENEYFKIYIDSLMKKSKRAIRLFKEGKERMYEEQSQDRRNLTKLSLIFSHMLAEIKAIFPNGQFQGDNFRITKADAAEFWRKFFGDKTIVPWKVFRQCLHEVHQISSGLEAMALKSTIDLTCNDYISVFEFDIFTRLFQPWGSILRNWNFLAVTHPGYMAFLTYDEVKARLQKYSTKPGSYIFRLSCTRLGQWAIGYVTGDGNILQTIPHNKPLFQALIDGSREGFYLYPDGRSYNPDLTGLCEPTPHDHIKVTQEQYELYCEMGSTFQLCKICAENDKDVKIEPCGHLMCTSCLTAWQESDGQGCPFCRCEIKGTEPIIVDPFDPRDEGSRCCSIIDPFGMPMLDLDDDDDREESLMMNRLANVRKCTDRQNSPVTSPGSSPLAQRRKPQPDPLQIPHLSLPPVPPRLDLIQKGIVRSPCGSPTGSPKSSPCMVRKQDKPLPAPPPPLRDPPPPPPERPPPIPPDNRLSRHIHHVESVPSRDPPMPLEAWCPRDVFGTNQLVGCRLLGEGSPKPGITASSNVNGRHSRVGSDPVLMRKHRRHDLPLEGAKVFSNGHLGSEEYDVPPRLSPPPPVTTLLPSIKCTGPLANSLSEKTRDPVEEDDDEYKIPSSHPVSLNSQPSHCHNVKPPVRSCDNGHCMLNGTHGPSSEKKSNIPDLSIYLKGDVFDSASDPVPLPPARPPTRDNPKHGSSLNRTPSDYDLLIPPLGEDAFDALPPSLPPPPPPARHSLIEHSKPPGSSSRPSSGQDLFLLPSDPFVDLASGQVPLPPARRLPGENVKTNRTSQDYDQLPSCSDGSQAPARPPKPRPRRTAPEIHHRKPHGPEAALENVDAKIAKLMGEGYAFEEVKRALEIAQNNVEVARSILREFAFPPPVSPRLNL
Turning to `C[C@@H]1CN(Cc2cc3c(C(F)(F)F)cn(-c4cccc([C@]5(c6nncn6C)C[C@@H](C)C5)c4)c(=O)c3[nH]2)CCN1` [Compound T142, 6-[3-[3-methyl-1-(4-methyl-1,2,4-triazol-3-yl)cyclobutyl]phenyl]-2-[[(3R)-3-methylpiperazin-1-yl]methyl]-4-(trifluoromethyl)-1H-pyrrolo[2,3-c]pyridin-7-one], the Ki (usually the dissociation constant of the complex between target and ligand, obtained from inhibition or displacement) was below 50 nM.
As for `Cn1cnnc1C1(c2cccc(-n3cc(C(F)(F)F)c4cc(CN5CCC[C@H](CC#N)C5)[nH]c4c3=O)c2)CCC1` [Compound T081, (R)-2-(1-((6-(3-(1-(4-methyl-4H-1,2,4-triazol-3-yl)cyclobutyl)phenyl)-7-oxo-4-(trifluoromethyl)-6,7-dihydro-1H-pyrrolo[2,3-c]pyridin-2-yl)methyl)piperidin-3-yl)acetonitrile], the Ki was below 50 nM.
Turning to `CO[C@@H]1CCN(Cc2cc3c(C(F)(F)F)cn(-c4cccc(C5(c6nncn6C)CCC5)c4)c(=O)c3[nH]2)C[C@@H]1F` [Compound T107, 2-(((3S,4R)-3-fluoro-4-methoxypiperidin-1-yl)methyl)-6-(3-(1-(4-methyl-4H-1,2,4-triazol-3-yl)cyclobutyl)phenyl)-4-(trifluoromethyl)-1,6-dihydro-7H-pyrrolo[2,3-c]pyridin-7-one], the Ki was below 50 nM.
Compound `C[C@H]1CCCN(Cc2cc3c(C4CC4)cn(-c4cccc([C@H](c5nncn5C)C5CCC5)c4)c(=O)c3[nH]2)C1` [Compound T012, 6-(3-((R)-cyclobutyl(4-methyl-4H-1,2,4-triazol-3-yl)methyl)phenyl)-4-cyclopropyl-2-(((S)-3-methylpiperidin-1-yl)methyl)-1,6-dihydro-7H-pyrrolo[2,3-c]pyridin-7-one] gave a Ki below 50 nM.
`Cn1cnnc1C1(c2cccc(-n3cc(C(F)(F)F)c4cc(CNCC(F)(F)CO)[nH]c4c3=O)c2)CCC1` [Compound T050, 2-[[(2,2-difluoro-3-hydroxy-propyl)amino]methyl]-6-[3-[1-(4-methyl-1,2,4-triazol-3-yl)cyclobutyl]phenyl]-4-(trifluoromethyl)-1H-pyrrolo[2,3-c]pyridin-7-one] showed a Ki below 50 nM.
Take `Cn1cnnc1C1(c2cccc(-n3cc(C(F)(F)F)c4cc(CN5CC[C@H](O)C5)[nH]c4c3=O)c2)CCC1` [Compound T016, 2-[[(3S)-3-hydroxypyrrolidin-1-yl]methyl]-6-[3-[1-(4-methyl-1,2,4-triazol-3-yl)cyclobutyl]phenyl]-4-(trifluoromethyl)-1H-pyrrolo[2,3-c]pyridin-7-one]: the Ki is below 50 nM.
`C[C@H]1CCCN(Cc2cc3c(C(F)(F)F)cn(-c4cccc(C5(c6nncn6C)COC5)c4)c(=O)c3[nH]2)C1` [Compound T129, (S)-6-(3-(3-(4-methyl-4H-1,2,4-triazol-3-yl)oxetan-3-yl)phenyl)-2-((3-methylpiperidin-1-yl)methyl)-4-(trifluoromethyl)-1,6-dihydro-7H-pyrrolo[2,3-c]pyridin-7-one] yielded a Ki below 50 nM.
Consider `Cn1cnnc1C1(c2cccc(-n3cc(C(F)(F)F)c4cc(CN5CCC[C@@](C)(O)C5)[nH]c4c3=O)c2)CCC1` [Compound T065, 2-[[(3R)-3-hydroxy-3-methyl-1-piperidyl]methyl]-6-[3-[1-(4-methyl-1,2,4-triazol-3-yl)cyclobutyl]phenyl]-4-(trifluoromethyl)-1H-pyrrolo[2,3-c]pyridin-7-one], for which the inhibition constant Ki is below 50 nM.
Consider `C[C@H]1CCCN(Cc2cc3c(S(C)(=O)=O)cn(-c4cccc(C5(Cc6nncn6C)COC5)c4)c(=O)c3[nH]2)C1` [Compound T089, 2-[[(3S)-3-methyl-1-piperidyl]methyl]-4-methylsulfonyl-6-[3-[3-[(4-methyl-1,2,4-triazol-3-yl)methyl]oxetan-3-yl]phenyl]-1H-pyrrolo[2,3-c]pyridin-7-one], for which the Ki is below 50 nM.
`C[C@H]1CN(Cc2cc3c(C4CC4)cn(-c4cccc(C5(Cc6nncn6C)COC5)c4)c(=O)c3[nH]2)CCC1(F)F` [Compound T079, (S)-4-cyclopropyl-2-((4,4-difluoro-3-methylpiperidin-1-yl)methyl)-6-(3-(3-((4-methyl-4H-1,2,4-triazol-3-yl)methyl)oxetan-3-yl)phenyl)-1,6-dihydro-7H-pyrrolo[2,3-c]pyridin-7-one] showed a Ki below 50 nM.
`Cn1cnnc1C1(c2cccc(-n3cc(C(F)(F)F)c4cc(CN5C[C@@H](F)[C@@H](F)C5)[nH]c4c3=O)c2)CCC1` [Compound T049, 2-[[(3R,4S)-3,4-difluoropyrrolidin-1-yl]methyl]-6-[3-[1-(4-methyl-1,2,4-triazol-3-yl)cyclobutyl]phenyl]-4-(trifluoromethyl)-1H-pyrrolo[2,3-c]pyridin-7-one]: the Ki was below 50 nM.
Compound `CO[C@H]1C[C@@](c2cccc(-n3cc(C(F)(F)F)c4cc(CNCCC5CC5)[nH]c4c3=O)c2)(c2nncn2C)C1` [Compound T153, 2-(((2-cyclopropylethyl)amino)methyl)-6-(3-((1s,3s)-3-methoxy-1-(4-methyl-4H-1,2,4-triazol-3-yl)cyclobutyl)phenyl)-4-(trifluoromethyl)-1,6-dihydro-7H-pyrrolo[2,3-c]pyridin-7-one] registered a Ki below 50 nM.
`Cn1cnnc1C1(c2cccc(-n3cc(C(F)(F)F)c4cc(CN5CC[C@@H](O)[C@@H](F)C5)[nH]c4c3=O)c2)CCC1` [Compound T072, 2-(((3 S,4R)-3-fluoro-4-hydroxypiperidin-1-yl)methyl)-6-(3-(1-(4-methyl-4H-1,2,4-triazol-3-yl)cyclobutyl)phenyl)-4-(trifluoromethyl)-1,6-dihydro-7H-pyrrolo[2,3-c]pyridin-7-one] came in with a Ki below 50 nM.
In turn, `CO[C@H]1C[C@@](c2cccc(-n3cc(C(F)(F)F)c4cc(CN5CC6CC6C5)[nH]c4c3=O)c2)(c2nncn2C)C1` (stereo partly shown) [Compound T143, 2-((3-azabicyclo[3.1.0]hexan-3-yl)methyl)-6-(3-((1s,3s)-3-methoxy-1-(4-methyl-4H-1,2,4-triazol-3-yl)cyclobutyl)phenyl)-4-(trifluoromethyl)-1,6-dihydro-7H-pyrrolo[2,3-c]pyridin-7-one] returned a Ki below 50 nM.
`Cn1cnnc1C1(c2cccc(-n3cc(C(F)(F)F)c4cc(CN5CCC6(CCOC6)CC5)[nH]c4c3=O)c2)CCC1` [Compound T125, 2-((2-oxa-8-azaspiro[4.5]decan-8-yl)methyl)-6-(3-(1-(4-methyl-4H-1,2,4-triazol-3-yl)cyclobutyl)phenyl)-4-(trifluoromethyl)-1,6-dihydro-7H-pyrrolo[2,3-c]pyridin-7-one] returned a Ki below 50 nM.
For the compound `Cn1cnnc1C1(c2cccc(-n3cc(C(F)(F)F)c4cc(CN5CCC(F)(F)CC5)[nH]c4c3=O)c2)CCC1` [Compound T075, 2-[(4,4-difluoro-1-piperidyl)methyl]-6-[3-[1-(4-methyl-1,2,4-triazol-3-yl)cyclobutyl]phenyl]-4-(trifluoromethyl)-1H-pyrrolo[2,3-c]pyridin-7-one], the Ki is below 50 nM.
The compound `CC(C)C1CN(C)CCN1Cc1cc2c(C3CC3)cn(-c3cccc([C@]4(c5nncn5C)C[C@@H](C)C4)c3)c(=O)c2[nH]1` (stereo partly shown) [Compound T094, 4-cyclopropyl-2-((2-isopropyl-4-methylpiperazin-1-yl)methyl)-6-(3-((1s,3s)-3-methyl-1-(4-methyl-4H-1,2,4-triazol-3-yl)cyclobutyl)phenyl)-1,6-dihydro-7H-pyrrolo[2,3-c]pyridin-7-one] displayed a Ki below 50 nM.
`Cn1cnnc1C1(c2cccc(-n3cc(C(F)(F)F)c4cc(CN5CCC[C@@H](O)C5)[nH]c4c3=O)c2)CCC1` [Compound T039, 2-[[(3R)-3-hydroxy-1-piperidyl]methyl]-6-[3-[1-(4-methyl-1,2,4-triazol-3-yl)cyclobutyl]phenyl]-4-(trifluoromethyl)-1H-pyrrolo[2,3-c]pyridin-7-one] yielded a Ki below 50 nM.
Take `C[C@H]1CN(Cc2cc3c(C(F)(F)F)cn(-c4cccc(C5(c6nncn6C)CCC5)c4)c(=O)c3[nH]2)CCC1(F)F` [Compound T110, 2-[[(3S)-4,4-difluoro-3-methyl-1-piperidyl]methyl]-6-[3-[1-(4-methyl-1,2,4-triazol-3-yl)cyclobutyl]phenyl]-4-(trifluoromethyl)-1H-pyrrolo[2,3-c]pyridin-7-one]: the Ki was below 50 nM.
For the compound `C[C@H]1CCCN(Cc2cc3c(C(F)(F)F)cn(-c4cccc([C@@H](c5nncn5C)C5CCC5)c4)c(=O)c3[nH]2)C1` [Compound T059, 6-(3-((S)-cyclobutyl (4-methyl-4H-1,2,4-triazol-3-yl)methyl)phenyl)-2-(((S)-3-methylpiperidin-1-yl)methyl)-4-(trifluoromethyl)-1,6-dihydro-7H-pyrrolo[2,3-c]pyridin-7-one], the Ki was below 50 nM.
In turn, `C[C@H]1CCCN(Cc2cc3c(C(F)(F)F)cn(-c4cc(F)cc([C@]5(c6nncn6C)C[C@@H](C)C5)c4)c(=O)c3[nH]2)C1` [Compound T101, 6-(3-fluoro-5-((1s,3R)-3-methyl-1-(4-methyl-4H-1,2,4-triazol-3-yl)cyclobutyl)phenyl)-2-(((S)-3-methylpiperidin-1-yl)methyl)-4-(trifluoromethyl)-1,6-dihydro-7H-pyrrolo[2,3-c]pyridin-7-one] came in with a Ki below 50 nM.
Then `Cn1cnnc1C1(c2cccc(-n3cc(C(F)(F)F)c4cc(CN5CCC(C(F)F)CC5)[nH]c4c3=O)c2)CCC1` [Compound T112, 2-[[4-(difluoromethyl)-1-piperidyl]methyl]-6-[3-[1-(4-methyl-1,2,4-triazol-3-yl)cyclobutyl]phenyl]-4-(trifluoromethyl)-1H-pyrrolo[2,3-c]pyridin-7-one], with below 50 nM.

The values are drawn from patent US20260217706A1, “HETEROCYCLIC COMPOUNDS, PREPARATION METHOD THEREFOR AND USE THEREOF” (GUANGZHOU YUFAN NANTU BIOTECHNOLOGIES CO., LTD, priority 2023, published 2026).
